Assay results as given in ChEMBL document CHEMBL1135839, “Design and synthesis of novel benzofurans as a new class of antifungal agents targeting fungal N-myristoyltransferase. Part 2” (Bioorg Med Chem Lett, 2002).

How the values were obtained:
[1] = Plasma concentration expressed as area under curve after intravenous administration was determined in rat; format: ADME, organism-based
[2] = Half life of compound determined after intravenous administration to rat; format: ADME, organism-based; conditions: in vivo
Candida albicans [3] = experiment: Antifungal activity expressed as inhibitory concentration against Candida albicans CY1002 in calf serum; format: functional, organism-based
[4] = biological target: T1, Peptide N-myristoyltransferase (Homo sapiens, UniProt P30419+O60551); experiment: Inhibitory activity against human N-Myristoyltransferase (HsNmt) assessed as inhibitory concentration using substrate peptide and myristotyl-CoA at 0.5 uM; format: protein assay
T1 sequence (P30419 whole entry): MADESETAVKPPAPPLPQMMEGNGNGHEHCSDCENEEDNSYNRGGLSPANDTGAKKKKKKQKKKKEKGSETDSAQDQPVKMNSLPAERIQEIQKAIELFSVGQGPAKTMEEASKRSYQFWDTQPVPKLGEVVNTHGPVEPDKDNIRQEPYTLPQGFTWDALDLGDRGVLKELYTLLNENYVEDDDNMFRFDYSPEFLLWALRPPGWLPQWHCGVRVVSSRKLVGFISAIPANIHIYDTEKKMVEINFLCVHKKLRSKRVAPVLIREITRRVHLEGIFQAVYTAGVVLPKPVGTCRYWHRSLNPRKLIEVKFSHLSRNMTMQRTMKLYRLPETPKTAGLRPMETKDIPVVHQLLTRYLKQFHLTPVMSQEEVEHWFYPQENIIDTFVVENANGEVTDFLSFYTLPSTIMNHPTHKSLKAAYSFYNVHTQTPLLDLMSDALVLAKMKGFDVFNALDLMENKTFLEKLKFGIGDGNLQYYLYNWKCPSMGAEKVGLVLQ
T1 sequence (O60551 whole entry): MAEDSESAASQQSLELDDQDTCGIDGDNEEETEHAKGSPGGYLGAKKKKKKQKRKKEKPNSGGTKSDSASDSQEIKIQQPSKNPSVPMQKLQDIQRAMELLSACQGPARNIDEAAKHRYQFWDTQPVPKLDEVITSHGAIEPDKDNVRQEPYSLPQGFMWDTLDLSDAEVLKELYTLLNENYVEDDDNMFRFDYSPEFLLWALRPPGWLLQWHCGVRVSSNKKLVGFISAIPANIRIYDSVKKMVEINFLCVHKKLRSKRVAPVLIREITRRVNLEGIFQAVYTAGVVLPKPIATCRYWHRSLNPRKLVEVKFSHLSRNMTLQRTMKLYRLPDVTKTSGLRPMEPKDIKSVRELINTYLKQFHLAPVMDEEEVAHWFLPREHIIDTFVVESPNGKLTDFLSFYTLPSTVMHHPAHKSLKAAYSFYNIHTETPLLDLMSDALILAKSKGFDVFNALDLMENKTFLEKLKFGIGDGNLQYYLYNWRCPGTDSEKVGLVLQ

Candida albicans [5] = experiment: Antifungal activity expressed as inhibitory concentration against Candida albicans CY1002 in YNBPB medium; format: functional, organism-based
[6] = biological target: Candida albicans N-myristoyltransferase (Candida albicans); experiment: Inhibitory activity against Candida albicans N-Myristoyltransferase (CaNmt) assessed as inhibitory concentration using substrate peptide and myristotyl-CoA at 0.5 uM
[7] = biological target: Candida albicans N-myristoyltransferase (Candida albicans); experiment: Inhibitory activity against Candida albicans N-Myristoyltransferase (Nmt)
[8] = biological target: Candida albicans N-myristoyltransferase (Candida albicans); experiment: Inhibitory activity against Candida albicans (Nmt) assessed as inhibitory concentration (nM)
Rattus norvegicus = experiment: Effective dose required against Candida albicans for 50% survival on intravenous administration in rats; format: functional
[9] = biological target: Candida albicans N-myristoyltransferase (Candida albicans); experiment: Inhibitory activity against Candida albicans (Nmt) assessed as inhibitory concentration
Candida albicans [10] = experiment: Antifungal activity expressed as inhibitory concentration against Candida albicans in calf serum; format: functional, organism-based

SMILES | AUC [1] | half-life [2] | IC50 (Candida albicans [3]) | IC50 [4] | IC50 (Candida albicans [5]) | IC50 [6] | IC50 [7] | IC50 [8] | ED50 (Rattus norvegicus) | IC50 [9] | IC50 (Candida albicans [10])
Cc1c(COc2cccc(F)c2)oc2cccc(OCCCNCc3cccnc3)c12 | 370 ng·h/mL | 1.5 h | 3300 nM | > 110000 nM | 110 nM | 110 nM |  |  |  |  | 
Cc1c(C(=O)Nc2ccccc2)oc2cccc(OCCCNCc3cccnc3)c12 | 240 ng·h/mL | 0.9 h |  | > 480000 nM | 12000 nM | 2200 nM |  |  |  |  | 
Cc1c(COc2cccc(F)c2F)oc2cccc(OCCCNCc3cccnc3)c12 | 500 ng·h/mL | 1.9 h | 570 nM |  | 80 nM |  |  |  |  |  | 
Cc1c(COc2ccc(C#N)cc2)oc2cccc(OCCCNCc3cccnc3)c12 | 340 ng·h/mL | 1.2 h | 1400 nM | > 460000 nM | 160 nM | 9.4 nM | 9.4 nM |  |  |  | 
Cc1c(COc2ccc(F)cc2)oc2cccc(OCCCNCc3cccnc3)c12 | 340 ng·h/mL | 1.9 h | 700 nM | 67000 nM | 21 nM | 5.2 nM |  | 5.2 nM |  |  | 
Cc1c(COc2ccc(Br)cc2F)oc2cccc(OCCCNCc3cccnc3)c12 | 360 ng·h/mL | 3.6 h | 1300 nM | > 400000 nM | 74 nM | 28 nM |  |  | > 30 mg/kg |  | 
CCOC(=O)c1oc2cccc(OCCCNCc3cccnc3)c2c1C | 330 ng·h/mL | 0.4 h |  | > 450000 nM |  |  |  |  |  |  | 
Cc1c(CCc2ccccc2)oc2cccc(OCCCNCc3cccnc3)c12 | 290 ng·h/mL | 1.1 h | > 240000 nM | 12000 nM | 13000 nM | 1200 nM |  |  |  |  | 
Cc1c(COc2ccc(F)cc2F)oc2cccc(OCCCNCc3cccnc3)c12 | 420 ng·h/mL | 1.6 h | 340 nM | > 450000 nM | 30 nM | 7.5 nM |  | 7.5 nM | 7.1 mg/kg |  | 
Cc1c(COc2ccccc2)oc2cccc(OCCCNCc3cccnc3)c12 | 670 ng·h/mL | 1.9 h |  | 77000 nM | 370 nM | 72 nM |  |  |  |  | 
Cc1c(COc2ccc(F)c(F)c2F)oc2cccc(OCCCNCc3cccnc3)c12 | 330 ng·h/mL | 2 h | 330 nM |  | 35 nM |  |  |  | 7.1 mg/kg |  | 
Cc1c(COc2ccccc2F)oc2cccc(OCCCNCc3cccnc3)c12 | 560 ng·h/mL | 1.6 h | 600 nM | > 470000 nM | 40 nM | 8.3 nM |  |  |  | 8.3 nM | 
Cc1c(COc2ccccc2C#N)oc2cccc(OCCCNCc3cccnc3)c12 | 280 ng·h/mL | 0.5 h | 3300 nM | 19000 nM | 1200 nM | 17 nM |  |  |  |  | 
Cc1c(COc2ccc(Cl)cc2)oc2cccc(OCCCNCc3cccnc3)c12 | 330 ng·h/mL | 2.4 h | 6600 nM | > 110000 nM | 920 nM | 73 nM |  |  |  |  | 
Cc1c(CSc2ccccc2)oc2cccc(OCCCNCc3cccnc3)c12 | 390 ng·h/mL | 1.4 h | 180000 nM |  | 11000 nM |  |  |  |  |  | 
OC(Cn1cncn1)(Cn1cncn1)c1ccc(F)cc1F [FLUCONAZOLE] | 19.6 ng·h/mL | 4 h | 500 nM |  |  |  |  |  |  |  | 500 nM
